The results in this text go back to PMC9369610, “Pro-Apoptotic and Pro-Autophagic Properties of Cardenolides from Aerial Parts of Pergularia tomentosa” (Molecules, 2022).

One data set deals with Caco-2 cells. In words: MTT cell viability assay, IC50 in Caco-2 cells. In kind it is cell-based. The settings on record: Homo sapiens, 24 h, SE less than 10% of value. As for the experimental part: (§1) The human liver hepatocellular carcinoma cell line, HepG2, and the human adenocarcinoma of colon cell line, Caco-2, were cultured in Eagle’s Minimum Essential medium supplemented with 1% (v/v) non-essential amino acids, 0.2 mM L-glutamine, 50 units/mL penicillin, 50 μg/mL streptomycin and 10% (v/v) or 20% (v/v) fetal bovine serum (Sigma Aldrich, Milan, Italy) for HepG2 or Caco-2, respectively. The human embryonal lung fibroblast cell line, MRC5, was cultured in Dulbecco’s Modified Eagle medium (Sigma Aldrich, Milan, Italy) supplemented with 10% (v/v) fetal bovine serum, 0.2 mM L-glutamine, 50 units/mL penicillin and 50 μg/mL streptomycin. HUVEC cells were cultured in endothelial growth medium-2, supplemented with fetal bovine serum (2%), VEGF (0.1%), rH FGF-B (0.4%), rH EGF (0.1%), GA-1000 (0.1%), hydrocortisone (0.04%), R3-IGF-1 (0.1%), heparin (0.1%) and ascorbic acid (0.1%). Cells were maintained at 37 °C in a 5% CO2, 95% air-humidified atmosphere and passaged twice a week. Cell lines were obtained from Interlab Cell Line Collection, Istituto Nazionale per la Ricerca sul Cancro, Genoa, Italy. HUVEC were obtained from Lonza (Milan, Italy).
(§2) An MTT assay was used to analyse cell viability. Cells were seeded in 96 wells at the density of 2 × 10^4/cm^2 and, after 24 h, they were treated with P. tomentosa compounds or with the vehicle (DMSO). After a further 24 h of treatment, 0.5 mg/mL of MTT was added to the cell medium and incubated for 1.5 h at 37 °C. The resulting formazan crystals were dissolved in 100 μL of DMSO and absorbances were measured at 595 nm and 655 nm. The background signals at 655 nm were subtracted from 595 nm signals, and data were expressed as a percent of cell viability. The concentration of each compound that is required for 50% inhibition in vitro (IC50) was calculated as described in Husseini et al.. IC50 values were obtained for Caco-2, HepG2 and MRC5 cells by performing MTT assays with concentrations ranging from 0.01 μg/mL to 5 μg/mL.
On the technique in general: Tetrazolium assays rely on reduction of a dye to a coloured formazan, in cell work by metabolically active cells.

The subject of data set [1] is HepG2, Caco-2, MRC5 and HUVEC cells. In words: MTT assay, comparison of cytotoxic effects at 1 μM on four cell types. Type of data set: cell-based, human. The settings on record: 24 h, Caco-2, HepG2, MRC5, HUVEC.
Excerpt: We focused attention on 12β,6′-dihydroxycalotropin (1), 16α-hydroxycalotropin (2), 12β-hydroxycalactin (3), calotropin (4), and calactin (5), among those described by Hosseini et al., and tested their cytotoxic activity by a 3-(4,5-dime-thylthiazol-2-yl)-2,5-diphenylte-tetrazolium bromide (MTT) assay on two cancer cell lines (HepG2 and Caco-2), not previously employed, on an immortalised nontumoral cell line (MRC5) and normal primary cells (HUVEC).
Figure 2 Comparison of cytotoxic effects of P. tomentosa compounds on cancer cell lines (Caco-2 and HepG2), on an immortalised cell line (MRC5) and normal cells (HUVEC). Cells were treated for 24 h with 1 μM of each compound. Residual viability was measured by the MTT assay. Values are the means ± standard error (SE) of three independent experiments performed in triplicate. Statistical analysis was performed using the Student’s t-test. * p < 0.05 and ** p < 0.01 vs. cells treated with the vehicle (DMSO).
as §1, §2

A further data set relates to HepG2 cells. In words: Transwell migration assay. The settings on record: HepG2, 1 μM, 18 h. In kind it is cell-based, human. The protocol: Transwell filters (coated with collagen) in serum-free media containing 0.1% of BSA, with a PET membrane with 8 μm pores (BD Biosciences, Milan, Italy), were rehydrated for 2 h at 37 °C. HepG2 were seeded in the upper chambers at a density of 75 × 10^3 cells in MEM with 0.1% BSA and treated with or without 1 µM of Pergularia compounds. MEM−0.1%BSA, supplemented with 10% FBS, was added to the lower chamber as chemoattractant. Control wells without 10% FBS were included to assess random migration. After incubation at 37 °C in 5% CO2 for 18 h, the migrated cells were fixed with 4% paraformaldehyde for 5 min, permeabilised with methanol for 20 min and stained with crystal violet 0.5% for 15 min at room temperature. The cells on the lower side of the filter were allowed to dry before counting. Eight separate bright-field images were randomly acquired of each filter using an Olympus CKX41 Image Analyzer. The cells in each image were counted and analysed compared to control-transfected cells.

With `C[C@@H]1C[C@@H](O)[C@]2(O)O[C@@H]3C[C@@]4(C=O)[C@@H](CC[C@@H]5[C@@H]4CC[C@]4(C)[C@@H](C6=CC(=O)OC6)CC[C@]54O)C[C@H]3O[C@@H]2O1` [Compound 5, calactin], in the data set with Caco-2 cells, the IC50 (commonly the concentration needed to halve the response being measured) was 650 nM. The “relative cytotoxicity (residual viability, MTT)” value in data set [1] is reported as “most cytotoxic”. The “effect on transwell migration” value in the data set on HepG2 cells is listed as “most potent”.
